Measurements as given in US5126258A (priority 1988, dated 1992).

How the values were obtained:
Format in all cases: biochemical, mouse
17G8 = assay: Hydrolysis of reactant ligands by receptor 17G8
Description: (§1) ^1 Preliminary initial hydrolyses shown as the percentage of admixed
(§2) reactant ligand consumed for catalyzed and spontaneous hydrolyses. "--" =
(§3) No hydrolysis observed. "NT" = Not tried. All reactions were carried out
(§4) at pH 8.0 in a 50 mM phosphate buffer unless otherwise noted. Hydrolytic
(§5) percentages were determined by HPLC using a Hitachi model 655A12 liquid
(§6) chromatograph with a C18 Vydac 201TP54 column, except as noted below.
(§7) Mixtures of acetonitrile a nd water containing 0.1 percent trichloroaceti
(§8) acid [28:72-50:50 (v/v)] were used as elutant. Hydrolyses of Compounds 5
(§9) and 20 were assayed using fluorescence data.
(§10) ^2 Concentrations of receptor molecules (Rec.) and reactant ligands
(§11) (Lig.) in micromolar units, presuming a molecular weight of 150,000
(§12) daltons for each receptor molecule.
(§13) ^3 Reactant ligand (Lig.) used as substrate.
(§14) ^4 Time in hours that the reaction was permitted to take place.
(§15) ^5 Spontaneous hydrolytic percentages for the time period indicated.
(§16) ^6 Reaction carried out at pH 7.2 in a 50 mM phosphate buffer.

13E10 = assay: Hydrolysis of reactant ligands by receptor 13E10; settings: for hydrolysis by 13E10: pH 8.0, receptor/ligand uM, time h: 17 1/10, 2, 18 2/10, 24, 20 2/10, 0.33, 5 1/5, 0.33, 22 5/10, 3.5, preliminary
Description: as §1, §2, §3, §4, §5, §6, §7, §8, §9, §10, §11, §12, §13, §14, §15, §16

Monoclonal Receptor 22F5 = assay: Kinetics of hydrolysis by receptor 22F5
Text: Reaction kinetics were studied using three reactant ligands as substrates for monoclonal receptors 37G2 and 22F5. Data from initial rates were consistent with Michaelis-Menten reaction mechanism for a usual enzyme-substrate system. Initial rates were followed using at 271 nm using a U.V.-visible spectorphotometer for Compound 17, and a fluorescence spectrometer for Compounds 5 and 20, using an excitation wavelength of 355 nm and an emission wavelength of 455 nm for both compounds.
Lineweaver-Burke plots for the catalyzed hydrolysis of Compounds 17, 5 and 20 obtained in the presence and absence of Compound 12i as inhibitor were prepared as discussed for FIG. 4. In particular, Compound 17 was present at concentrations of 1-16 uM with inhibitor concentrations of 100 and 300 nanomolar (nM). Compound 5 was present at concentrations of 1-10 uM with inhibitor concentrations of 100 and 200 nM. Compound 20 was present at concentrations of 2-20 uM with inhibitor concentrations of 25 and 100 nM.
*Fluorescence assays using Compounds 20 and 5 were carried out in a
PerkinElmer fluorescence spectrophotometer (moded LS5; Oakbrook, IL) usin
200 nanomolar receptor (based on a molecular weight of 150,000 daltons) i
50 mM phosphate buffer at a pH value of 8.0. The reactant ligand was
dissolved in dioxane and admixed in the amounts discussed above. Two
milliliters of reaction solution were utilized as was a dioxane
concentration of 2 percent by volume. […]

P2 50D8 = assay: Catalytic hydrolysis by receptor P2 50D8
Description: (§17) Two further catalytic monoclonal receptors were similarly prepared by another fusion using Compound 2i linked to an antigenic carrier as immunogen. Those two catalytic receptor molecules and their hybridomas were designated "P2 50D8" and "P2 57G4".
(§18) In one study, twenty-eight monoclonal anti-hapten antibodies to phosphonate 2i from two separate fusion experiments were assayed. […] Antibodies to Compound 4i as hapten were assayed in the same manner. Twelve gamma-globulins were screened as described above. Compound 5 is homologous only in the acyl portion of this larger hapten; however, all but three of these cross-reacted with smaller phosphonate 2 in an ELISA assay as described herein. For two of these there was observed a fluorescence change, occurring in the first 5 minutes of incubation, which corresponds to about 50 percent of that for complete hydrolysis. The background rate of hydrolysis was reestablished after this initial reaction leveled off.

[1] = tested on: anti-Compound 4i antibodies; assay: Fluorescence esterolytic assay of twelve anti-Compound 4i gamma-globulins with Compound 5; settings: two of twelve anti-Compound 4i antibodies, first 5 minutes of incubation
Description: (§19) A Perkin-Elmer LS-5 fluorescence spectrometer was operated at a fixed wavelength, using 355 nanometers (nm) for excitation and measuring the emission at 455 nm. A stock solution of the coumarin ester 5 was prepared in dioxane and was diluted to the desired concentrations in Tris-HCl (50 mM, pH 7) or sodium phosphate (50 mM, pH 4-9).
(§20) Reactions were run at 23 degrees C and were initiated by the addition of an aliquot of antibody solution (1 mg/ml) to substrate solutions to provide a final protein concentration of 100 nM. Final fluorescence values were determined by hydrolysis of the substrate with pig liver esterase. The observed reaction rate was corrected for spontaneous hydrolysis. Reaction kinetics were studied by measuring initial rates under pseudo-first order conditions. Active protein concentration was extrapolated from fluorescence values at the end of the reaction. The kinetic parameters were obtained by fitting the data to a hyperbolic curve and from double reciprocal plots. Inhibition constants were determined from the Lineweaver-Burk plot data with at least five inhibitor concentrations. […]
The fluorescence change upon hydrolysis of coumarin esters is easily detectable at nanomolar concentrations.
The practical range of pH for the assay is limited by the rapid spontaneous rate of hydrolysis of an ester Compound 5 above pH 8.0. […] Any change in fluorescence above background was noted. […]

P2 57G4 = assay: Catalytic hydrolysis by receptor P2 57G4
Description: as §17, §18

[2] = tested on: twenty-eight monoclonal anti-hapten antibodies to phosphonate 2i; assay: Fluorescence assay of twenty-eight anti-phosphonate 2i antibodies with Compound 5; settings: pH 7.2
Description: as §19
as §20, with “Reaction kinetics were studied by measuring initial rates under pseudo-first order conditions.” left out, “The kinetic parameters were obtained by fitting the data to a hyperbolic curve and from double reciprocal plots.” left out
The practical range of pH for the assay is limited by the rapid spontaneous rate of hydrolysis of an ester Compound 5 above pH 8.0. […] Any change in fluorescence above background was noted.
In one study, twenty-eight monoclonal anti-hapten antibodies to phosphonate 2i from two separate fusion experiments were assayed. […] For two of these there was observed a fluorescence change, occurring in the first 5 minutes of incubation, which corresponds to about 50 percent of that for complete hydrolysis. […]

[3] = tested on: monoclonal receptor P3 6D4; assay: Stoichiometric transacylation reaction of monoclonal receptor P3 6D4 with coumarin ester Compound 5 (fluorescence) and its inhibition/inactivation
Outline: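 Antibody P3 6D4 (100 nM final) reacted at 23 °C with coumarin ester 5 in Tris-HCl or phosphate buffer (50 mM, pH 4–9), followed by fluorescence (ex 355/em 455 nm). Initial rates corrected for spontaneous hydrolysis; kinetic parameters from hyperbolic and double-reciprocal fits, Ki from Lineweaver-Burk with ≥5 inhibitor concentrations.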

[4] = pH 7.2, 1 uM receptor, 10 uM ligand, 2 h

| hydrolysis by 17G8, pH 7.2 (17G8; [4]) | hydrolysis by 13E10, pH 7.2 (13E10; [4]) | hydrolysis by 13E10 (13E10) | Km (Monoclonal Receptor 22F5; 50 mM phosphate pH 8.0, 200 nM receptor, 2% dioxane, figure = Km × 10^6) [µM] | kcat (Monoclonal Receptor 22F5; pH 8.0) [s⁻¹] | Vmax (Monoclonal Receptor 22F5; pH 8.0, 200 nM receptor, figure = Vmax × 10^9) [µM/min] | catalytic hydrolysis by P2 50D8 (P2 50D8) | hydrolysis by 17G8 (17G8; pH 8.0, receptor/ligand uM, time h: 18 2/10, 24, 20 2/10, 0.33, 5 1/5, 0.33, 22 5/10, 3.5, preliminary) | catalytic hydrolysis by P2 57G4 (P2 57G4) | inactivation of receptor [3] | stoichiometry, mole of ester per mole of combining sites ([3]; IgG molecular weight 150,000 assumed) | rate change pH 8.0 versus pH 7.0 ([3]; preliminary) | Compound | fluorescence change as share of complete hydrolysis [1] | reactivity with Compound 5 in fluorescence assay [2] |
| --- | --- | --- | --- | --- | --- | --- | --- | --- | --- | --- | --- | --- | --- | --- |
| 15 percentage of reactant ligand | 33 percentage of reactant ligand | 32 percentage of reactant ligand | – | – | – | – | – | – | – | – | – | CC(=O)Nc1ccc(CC(=O)Oc2cccc3ccccc23)cc1 [Compound 17] | – | – |
| – | – | 13 percentage of reactant ligand | 1.4 | 0.0022 | 0.0912 | capable of catalytically hydrolyzing | 16 percentage of reactant ligand | capable of catalytically hydrolyzing | specific inactivator | one | modest rate increase | O=C(Cc1ccc(NC(=O)C(F)(F)F)cc1)Oc1ccc2ccc(=O)oc2c1 [Compound 5] | about 50% | None of these were reactive |
